The values below come from US4920231A, “Process of braking triflouromethyl compounds” (Roussel Uclaf, priority 1988, dated 1990).

SMILES strings stand for the structures. Converted amounts (≈) assume the structure as drawn.

Assay type in all cases: in vivo
The test system of one assay is house-fly. The assay is described as follows: Study of lethal activity on the house-fly (topical application). Conditions: four-day old female house-flies, topical 1 μl acetone solution on dorsal thorax, mortality at 24 hours; without synergist or with piperonyl butoxide (table does not say which). How it is done:
A. Study of lethal activity on the house-fly
The insects tested were four-day old female house-flies and the test was carried out by topical application of 1 μl of acetone solution on the dorsal thorax of the insects using an Arnold micromanipulator. 50 individuals per treatment were used and a mortality check was carried out 24 hours after treatment. The tests were carried out without a synergist or with the addition of piperonyl butoxide (10 parts of synergist per 1 part of test compound). The experimental results, given in the following table, are expressed in LD 50 (in nanograms) necessary to kill 50% of the insects: […]

The next assay deals with Aphis cracivora. The assay is described as follows: Study of the lethal effect on Aphis cracivora (contact-injection method, treated broad-bean leaf). Conditions: 7-day old adults, contact with treated leaf for one hour, mortality after 24 hours. How it is done:
B. Study of the lethal effect on Aphis cracivora
7-day old adults were used and 10 aphids per concentration used were employed. A contact-injection method was used and the treatment of a broad-bean leaf was carried out with a Fisher gun, the leaf being placed in a plastic Petri dish on a circle of damp paper. The treatment was carried out with 2 ml of acetone solution of the product under test (1 ml per side of leaf). The infestation by the insects was brought about after drying the leaf and the insects were kept in contact with the leaf for one hour. Insects were placed on untreated leaves and the mortality was checked after 24 hours.

For assay [1], the system named is Boophilus microplus larvae. The assay is described as follows: Study of the activity on Boophilus microplus larvae (spraying tower, % mortality). Conditions: for activity on Boophilus microplus larvae (conclusion): 100, 10 and 1 ppm; for mortality at 1 ppm / mortality at 10 ppm / mortality at 100 ppm: Rhipicephalus microplus, in Bos taurus, larvae, after 24 hours. On the procedure: C. Study of the acaricide activity in animals
(a) Study of the activity on Boophilus microplus larvae
The substance under test was dissolved in a mixture of dimethylformamide, emulsifiers and Arcopal so as to obtain a concentrate emulsifying at 10%. This concentrate was diluted with water to obtain solutions of the desired concentrations of 100, 10 and 1 ppm. Using a spraying tower, the various solutions were sprayed over the larvae of tropical cattle ticks of Boophilus microplus type, and after 24 hours, the percentage of mortality was determined by counting the living and dead larvae.

The subject of assay [2] is Boophilus microplus females. Description: Study of the activity on inhibition of the reproduction of Boophilus microplus ticks. Conditions: for activity on inhibition of reproduction of Boophilus microplus ticks (conclusion): 100 to 0.19 ppm; for inhibition at 0.19 ppm / inhibition at 0.38 ppm / inhibition at 0.75 ppm / inhibition at 1.5 ppm / inhibition at 3.1 ppm / inhibition at 6.2 ppm / inhibition at 12.5 ppm / inhibition at 25 ppm / inhibition at 50 ppm / inhibition at 100 ppm: Rhipicephalus microplus, 5 min, females submerged for 5 minutes. How it is done:
The substance under test was dissolved in a mixture of dimethylformamide, emulsifiers and Arcopal so as to obtain a concentrate emulsifying at 10%. This concentrate was diluted with water to obtain solutions of the desired concentrations of 100, 10 and 1 ppm. Using a spraying tower, the various solutions were sprayed over the larvae of tropical cattle ticks of Boophilus microplus type, and after 24 hours, the percentage of mortality was determined by counting the living and dead larvae. The results are as follows:
(b) Study of the activity on inhibition of the reproduction of Boophilus microplus ticks
Boophilus microplus females, ready to lay eggs, were submerged for 5 minutes in the solutions prepared above and then they were placed in a heated chamber to lay the eggs. […]

Usually LC50 stands for the concentration that kills 50% of the test population. Higher therefore signals a less lethal substance. Usually mortality stands for the share of the test organisms that died. Broadly, the inhibition is the change of the read-out against control, counted positive when it falls. Lower therefore signals a weak effect.

As for `CC1(C)[C@H](/C=C(/c2ccc(Cl)cc2)C(F)(F)F)[C@H]1C(=O)O[C@H](C#N)c1ccc(F)c(Oc2ccccc2)c1` [Example 4, α-Cyano-4-fluoro-3-phenoxy-benzyl [1R-[1α(S*)-3β]-2,2-dimethyl-3-[(ΔZ) 2-(4-chlorophenyl)-3,3,3-trifluoro-1-propenyl]-cyclopropane carboxylate], the “LD 50” value in the assay with house-fly is on record as 5.3 ng/insect. Further, in the assay with Aphis cracivora, the LC50 amounted to 0.6 µg/mL (≈ 1.1 µM). In assay [1], the “activity on Boophilus microplus larvae (conclusion)” value is reported as “remarkable activity”, the mortality at 1 ppm was found to be 100%, the mortality at 10 ppm is 100% and the mortality at 100 ppm was found to be 100%. In assay [2], the “activity on inhibition of reproduction of Boophilus microplus ticks (conclusion)” value (“activity on inhibition” below) is reported as “remarkable activity”, the inhibition at 0.19 ppm was 100%, testing at 0.38 ppm gave an inhibition of 100% and the inhibition at 0.75 ppm was found to be 100%. Besides, in assay [2], the inhibition at 1.5 ppm came to 100%, the inhibition at 3.1 ppm was found to be 100%, the inhibition at 6.2 ppm amounted to 100% and the inhibition at 12.5 ppm came out at 100%. For the same molecule, in assay [2], the inhibition at 25 ppm worked out at 100%, the inhibition at 50 ppm stood at 100% and testing at 100 ppm gave an inhibition of 100%.
Turning to `CC(OC(=O)[C@@H]1[C@@H](/C=C(/c2ccc(Cl)cc2)C(F)(F)F)C1(C)C)c1cccc(Oc2ccccc2)n1` (stereo partly drawn) [Example 5, 1-(6-phenoxy-2-pyridyl)-ethyl [1R-(1α,(RS), 3β]] 2,2-dimethyl-3-[(ΔZ)-2-(4-chlorophenyl)-3,3,3-trifluoro-1-propenyl]-cyclopropane carboxylate], in assay [1], the “activity on Boophilus microplus larvae (conclusion)” value was “remarkable activity”, the mortality at 1 ppm was found to be 100% and the mortality at 10 ppm is 100%. For the same molecule, in assay [2], the “activity on inhibition” value is “remarkable activity”, the inhibition at 0.38 ppm is 85%, the inhibition at 0.75 ppm was found to be 100% and 1.5 ppm produced 100% inhibition. In assay [2], the inhibition at 3.1 ppm amounted to 100%, 6.2 ppm produced 100% inhibition, the inhibition at 12.5 ppm came to 100% and the inhibition at 25 ppm was 100%. In addition, in assay [2], the inhibition at 50 ppm stood at 100% and at 100 ppm the inhibition was 100%.
For the molecule `C[C@@H](OC(=O)[C@@H]1[C@@H](/C=C(/c2ccc(Cl)cc2)C(F)(F)F)C1(C)C)c1cccc(Oc2ccccc2)n1` [Example 3, 1-(6-phenoxy-2-pyridyl)-ethyl [1R-[1α(R*), 3β]]2,2-dimethyl-3-[(ΔZ)-2-(4-chlorophenyl)-3,3,3-trifluoro-1-propenyl]-cyclopropane carboxylate], in the assay on house-fly, the “LD 50” value worked out at 19.6 ng/insect. Moreover, in the assay on Aphis cracivora, the median lethal concentration (LC50) worked out at 1.34 µg/mL (≈ 2.6 µM). Besides, in assay [1], the “activity on Boophilus microplus larvae (conclusion)” value is on record as “remarkable activity”, the mortality at 1 ppm is 100%, the mortality at 10 ppm came to 100% and the mortality at 100 ppm came out at 100%. In addition, in assay [2], the “activity on inhibition” value is given as “remarkable activity”, the inhibition at 0.19 ppm turned out to be 100%, the inhibition at 0.38 ppm turned out to be 100% and 0.75 ppm produced 100% inhibition. Also, in assay [2], 1.5 ppm produced 100% inhibition, at 3.1 ppm the inhibition was 100%, the inhibition at 6.2 ppm came to 100% and the inhibition at 12.5 ppm is 100%. Further, in assay [2], at 25 ppm the inhibition was 100%, 50 ppm produced 100% inhibition and 100 ppm produced 100% inhibition.
